# Measurements taken from patent US5106859A, “Certain 1,3,4-thiadiazole derivatives and anti-ulcer agent comprising said derivatives as active ingredient” (Tsumura & Co., priority 1988, dated 1992).
# Test system: mucosa of the stomach
# Test: Anti-ulcer test by oral administration (hydrochloric acid/ethanol-induced stomach mucosa damage)
# Format: in vivo, male rats of the Wistar strain
# Conditions: 3 mg/kg orally in 0.5% CMC, 30 minutes before 150 M hydrochloric acid/60% ethanol; male Wistar rats, 8 per group; 1 hour after hydrochloric acid/ethanol
# Experimental: To male rats of the Wistar strain (each group consisting of 8 rats) having a body weight of 160 to 180 g, which had been fasted for 24 hours, was orally administered 3 mg/kg of the compound of formula I in the form of a suspension in a 0.5% solution of carboxymethyl cellulose (CMC), and after 30 minutes, 1 ml/200 of […] hydrochloric acid/60% ethanol was orally administered to the rats. One hour after the administration of the hydrochloric acid/ethanol, the rats were subjected to laparotomy, and the length of the damaged part formed on the mucosa of the stomach was compared, as the mucosa damage coefficient, with that in the control group. Only the 0.5% solution of CMC not containing the compound of formula I was orally administered to the control group. The inhibition ratio was calculated according to the following formula: [formula] wherein A represents the value of the control group and B represents the value of the group to which the compound of formula I was administered.
row,Compound,Inhibition Ratio (mucosa damage coefficient) [%]
1,"CCOC(=O)c1ccc(CSc2nnc(-c3cccnc3)s2)nc1 [Example 1, 2-[(5-Ethoxycarbonylpyridin-2-yl)methylthio]-5-(3-pyridyl)-1,3,4-thiadiazole]",42.9
2,"CCOC(=O)c1ccc(C[S+]([O-])c2nnc(-c3cccnc3)s2)nc1 (centres unmarked) [Example 2, 2-[(5-Ethoxycarbonylpyridin-2-yl)methylsulfinyl]-5-(3-pyridyl)-1,3,4-thiadiazole]",91.5
